In patent publication US11110095B2, “Pyrimidine compounds as JAK kinase inhibitors” (THERAVANCE BIOPHARMA R&D IP, LLC, priority 2016, dated 2021):
Entries after “also recorded” stand apart in the source; their conditions may differ.

Assays:
[1] = Colon pharmacokinetics in rats; format: in vivo, Sprague Dawley rats; conditions: rat, oral administration (summary statement)
Experimental: The test compound was formulated in 0.5% methyl-cellulose in water and dosed via oral gavage at 3.2 mg/kg and 100 mg/kg to Sprague Dawley rats. At various time points (typically 0.5, 1, 3, 6, 24 hr) post dosing, blood samples were removed via cardiac puncture and intact colons were excised from the rats. Blood samples were centrifuged at 1500×g for 15 min to collect plasma. Colons were washed with ice cold phosphate buffered saline (PBS), weighed, and homogenized at a dilution of 1:10 in PBS. Plasma and colon levels of test compound were determined by LC-MS analysis against analytical standards constructed into a standard curve in the test matrix. A colon to plasma ratio was determined as the ratio of the colon AUC to the plasma AUC in μg hr/g.

[2] = tested on: oxazolone-induced colitis; assay: Mouse model of oxazolone-induced colitis; format: in vivo, BALB/C mice; conditions: mice (summary statement)
Experimental: Oxazolone-induced colitis is an experimental model that has a histological resemblance to human ulcerative colitis (Heller et al. […], 2002, 17, 629-638). Adult BALB/C mice from Harlan were used in the assay. On day 1, animals were lightly anesthetized with isoflurane and the hairs between the shoulder were carefully removed before oxazolone (4%, 150 μL, 4:1 acetone: olive oil formulation) or vehicle solution was slowly applied for skin sensitization. Seven days after skin sensitization, the mice were fasted overnight, anesthetized with isoflurane inhalation, and a 1 mL syringe equipped with a 3.5-F catheter, filled with oxazolone solution, was inserted carefully about 4 cm into the colon of the mouse. Following insertion, 50 μL of the oxazolone solution (1%, 1:1 ethanol:water formulation) was injected very slowly (over 30 sec using an injection pump) into the colon. […] Two-day post oxazolone intrarectal challenge, the Disease Activity Index (DAI) was assessed by treatment-blinded experimenters for each mouse according to the criteria score: stool consistency score (0, normal; 2, loose; 4, diarrhea), gross bleeding score (0, absence; 2, blood tinged; 4, presence), and weight loss score (0, none; 1, 1%-5%; 2, 5%-10%; 3, 10%-20%; 4, more than 20%); DAI=average of (stool consistency score+gross bleeding score+weight loss score). […]

[3] = tested on: splenic NK, B and T cells; conditions: mouse, in vivo; for B and T cell populations (spleen): po
Experimental: Depletion of mouse splenic cells is an experimental model of immunosuppression (Kudlacz et al., Am. J. of Transplantation, 2004, 4, 51-57). The compound of Example 2 was assessed in the mouse splenic cell model following the same treatment paradigm as that used in the oxazolone-induced colitis model (Assay 8).
The compound (1, 10 and 100 mg/kg, BID) and tofacitinib (30 and 60 mg/kg, BID) as a positive control were dosed orally for three days to naïve mice. Spleens were harvested 1 h post last dose and crushed immediately for cell subtype staining. Prior to fixation, fluorophore-labelled antibodies for CD19 (FITC; B cells), CD3e (PE; pan T cells) and DX5 (APC; NK cells) were incubated with splenocyte samples from each animal to allow for simultaneous, multiple subtype % analysis on the flow cytometer. The number of total spleen cells for each animal was measured by Scepter™ 2.0 Handheld Automated Cell Counter.
The absolute number of lymphocyte subtype population (e.g., splenic B, T and NK cells) was calculated from the percentage of each subtype times total spleen cells for each animal. A one way ANOVA, with Dunnett's post hoc test, was used to compare the splenic lymphocytes number of the vehicle and test compound groups. The a level was set at p<0.05. Data were presented as the mean±SEM for each group.

[4] = tested on: TPA-induced increase in ear thickness; assay: Topical TPA-induced irritant contact dermatitis model in mice; format: in vivo, Balb/c mice; conditions: mouse, topical 30-3000 μg per ear, 6 hours after TPA
Experimental: The objective of this assay is to assess the anti-inflammatory effect in a model of acute dermatitis of test compounds being studied for cutaneous inflammatory conditions such as atopic dermatitis (Dong et al., J Pharmacol Exp Ther, 2013, 344, 436-446).
Topical dermal application of phorbol ester 12-O-tetradecanoylphorbol-13-acetate (TPA) in mice causes an inflammatory response that is characterized by edema and neutrophil influx at the early phase (2-24 h) and by epidermal cell proliferation at the later phase (24-48 h) (Griffiths et al., Agents and Actions, 1988, 25, 344-351). Female Balb/c mice were topically administered with either vehicle (1:7 DMSO:acetone) or 20 μL of a solution of TPA (2.5 μg) in vehicle on each ear. At 30 min before and 15 min after TPA administration, either vehicle or the compound of Example 2 at doses of 30, 100, 300, 1000, and 3000 μg in vehicle was applied topically to each ear. The degree of inflammation was assessed as the change in ear thickness at 6 hours after TPA application.

JAK3 = JAK3 (Homo sapiens (Human), UniProt P52333); assay: LanthaScreen JAK biochemical assay, JAK3
Chain of JAK3 (P52333 whole entry): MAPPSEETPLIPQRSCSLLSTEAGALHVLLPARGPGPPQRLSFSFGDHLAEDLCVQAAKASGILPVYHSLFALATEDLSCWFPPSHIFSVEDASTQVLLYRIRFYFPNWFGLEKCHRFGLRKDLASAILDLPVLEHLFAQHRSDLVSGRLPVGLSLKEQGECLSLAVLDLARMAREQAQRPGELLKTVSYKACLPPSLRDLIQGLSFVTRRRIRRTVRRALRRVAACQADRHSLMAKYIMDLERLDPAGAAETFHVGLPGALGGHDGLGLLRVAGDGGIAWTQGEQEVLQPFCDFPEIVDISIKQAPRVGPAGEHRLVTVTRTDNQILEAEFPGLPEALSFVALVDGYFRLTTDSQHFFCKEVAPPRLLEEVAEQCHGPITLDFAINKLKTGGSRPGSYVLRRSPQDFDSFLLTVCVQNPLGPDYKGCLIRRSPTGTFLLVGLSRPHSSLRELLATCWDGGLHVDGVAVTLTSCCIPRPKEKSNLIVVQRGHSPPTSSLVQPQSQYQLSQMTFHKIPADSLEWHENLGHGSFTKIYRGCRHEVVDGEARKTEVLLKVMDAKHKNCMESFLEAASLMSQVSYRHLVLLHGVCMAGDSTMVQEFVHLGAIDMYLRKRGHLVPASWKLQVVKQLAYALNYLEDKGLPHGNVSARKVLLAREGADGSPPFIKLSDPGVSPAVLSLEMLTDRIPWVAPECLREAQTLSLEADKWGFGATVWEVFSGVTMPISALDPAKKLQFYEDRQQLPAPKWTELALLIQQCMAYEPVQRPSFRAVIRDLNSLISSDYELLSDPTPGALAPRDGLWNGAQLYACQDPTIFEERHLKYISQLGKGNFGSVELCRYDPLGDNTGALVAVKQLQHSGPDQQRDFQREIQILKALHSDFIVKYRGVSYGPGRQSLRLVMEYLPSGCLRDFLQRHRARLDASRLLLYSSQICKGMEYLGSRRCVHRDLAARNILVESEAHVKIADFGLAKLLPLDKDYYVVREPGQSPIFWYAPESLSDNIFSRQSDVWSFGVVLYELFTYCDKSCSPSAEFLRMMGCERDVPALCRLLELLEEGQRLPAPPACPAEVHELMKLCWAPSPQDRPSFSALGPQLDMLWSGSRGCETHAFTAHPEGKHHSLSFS
Experimental: A panel of four LanthaScreen JAK biochemical assays (JAK1, 2, 3 and Tyk2) were carried in a common kinase reaction buffer (50 mM HEPES, pH 7.5, 0.01% Brij-35, 10 mM MgCl2, and 1 mM EGTA). Recombinant GST-tagged JAK enzymes and a GFP-tagged STAT1 peptide substrate were obtained from Life Technologies.
Serially diluted compounds were pre-incubated with each of the four JAK enzymes and the substrate in white 384-well microplates (Corning) at ambient temperature for 1h. ATP was subsequently added to initiate the kinase reactions in 10 μL total volume, with 1% DMSO. […] The plates were allowed to incubate at ambient temperature for 1h before being read on the EnVision reader (Perkin Elmer).
For dose-response analysis, percent inhibition data were plotted vs. compound concentrations, and IC50 values were determined from a 4-parameter robust fit model with the Prism software (GraphPad Software). Results were expressed as pIC50 (negative logarithm of IC50) and subsequently converted to pKi (negative logarithm of dissociation constant, Ki) using the Cheng-Prusoff equation.

[5] = Dynamic moisture sorption assessment; format: physicochemical; conditions: 5% to 90% relative humidity; for weight gain: 25° C.
Experimental: Dynamic moisture sorption (DMS) measurement was performed using a VTI atmospheric microbalance, SGA-100 system (VTI Corp., Hialeah, Fla. 33016). A weighed sample was used and the humidity was lowest possible value (close to 0% RH) at the start of the analysis. The DMS analysis consisted of an initial drying step (0% RH) for 120 minutes, followed by two cycles of sorption and desorption with a scan rate of 5% RH/step over the humidity range of 5% RH to 90% RH. The DMS run was performed isothermally at 25° C.

## COc1cc(Nc2cc(CO)[nH]n2)nc(N(C)[C@@H]2C[C@H]3CCC[C@@H](C2)N3S(=O)(=O)N2CC(C#N)C2)n1 [Example 2, 1-(((1R,3s,5S)-3-((4-((5-(Hydroxymethyl)-1H-pyrazol-3-yl)amino)-6-methoxypyrimidin-2-yl)(methyl)amino)-9-azabicyclo[3.3.1]nonan-9-yl)sulfonyl)azetidine-3-carbonitrile]
[1]
  ratio of exposure in the colon to exposure in plasma: greater than 250
[2]
  activity in the oxazolone-induced colitis model: demonstrated activity
[3]
  effect of immunosuppression: minimal effect of immunosuppression
  B and T cell populations (spleen): No treatment effect
[4]
  inhibition of TPA-induced increase in ear thickness: dose- and concentration-dependent effect; also recorded: dose- and concentration-dependent inhibition

## COc1cc(Nc2cc(CO)[nH]n2)nc(N(C)[C@@H]2C[C@H]3CCC[C@@H](C2)N3C(=O)C(F)F)n1 [Example 9, 2,2-difluoro-1-((1R,3s,5S)-3-((4-((5-(hydroxymethyl)-1H-pyrazol-3-yl)amino)-6-methoxypyrimidin-2-yl)(methyl)amino)-9-azabicyclo[3.3.1]nonan-9-yl)ethan-1-one]
JAK3
  JAK 3 (pKi): D (D represents a pKi value between 7.5 and 8 (Ki between 31.6 nM and 10 nM))

## COc1cc(Nc2cc(CO)[nH]n2)nc(N(C)[C@@H]2C[C@H]3CCC[C@@H](C2)N3S(=O)(=O)N2CC(C#N)C2)n1 [Form I, 1-(((1R,3s,5S)-3-((4-((5-(hydroxymethyl)-1H-pyrazol-3-yl)amino)-6-methoxypyrimidin-2-yl)(methyl)amino)-9-azabicyclo[3.3.1]nonan-9-yl)sulfonyl)azetidine-3-carbonitrile]
[5]
  hygroscopicity: non-hygroscopic
  weight gain: less than 0.4%
[5]; listed as Crystalline 1-((1R,3s,5S)-3-((4-((5-(hydroxymethyl)-1H-pyrazol-3-yl)amino)-6-me)))
  weight gain: less than 0.4%

## COc1cc(Nc2cc(CO)[nH]n2)nc(N(C)[C@@H]2C[C@H]3CCC[C@@H](C2)N3S(=O)(=O)N2CC(C#N)C2)n1 [Form II, 1-(((1R,3s,5S)-3-((4-((5-(hydroxymethyl)-1H-pyrazol-3-yl)amino)-6-methoxypyrimidin-2-yl)(methyl)amino)-9-azabicyclo[3.3.1]nonan-9-yl)sulfonyl)azetidine-3-carbonitrile]
[5]
  weight gain: about 1.2%

## C[C@@H]1CCN(C(=O)CC#N)C[C@@H]1N(C)c1ncnc2[nH]ccc12 [tofacitinib, reference compound]
[3]
  B and T cell populations (spleen): No treatment effect
